{
  "source": "Sander's compilation of Henry's law constants (doi:10.1007/bf00479396)",
  "data": [
    {"experiment": "Henry solubility constant Hcp at 293 K (mol/(m3 Pa))", "details": "reference: Tremp et al. (1993)", "values": [
      {"smiles": "Cc1ccccc1O", "note": "[1-hydroxy-2-methylbenzene]", "Henry solubility constant Hcp at 293 K": 7.1},
      {"smiles": "Cc1ccc(O)cc1", "note": "[1-hydroxy-4-methylbenzene]", "Henry solubility constant Hcp at 293 K": 13},
      {"smiles": "O=[N+]([O-])c1ccc(O)c([N+](=O)[O-])c1", "note": "[2,4-dinitrophenol]", "Henry solubility constant Hcp at 293 K": 110},
      {"smiles": "O=[N+]([O-])c1ccccc1O", "note": "[2-nitrophenol]", "Henry solubility constant Hcp at 293 K": 0.77},
      {"smiles": "Cc1cc(O)ccc1[N+](=O)[O-]", "note": "[3-methyl-4-nitrophenol]", "Henry solubility constant Hcp at 293 K": 620},
      {"smiles": "CCC(C)c1ccc(O)c([N+](=O)[O-])c1", "note": "(configuration not stated) [4-(1-methylpropyl)-2-nitrophenol]", "Henry solubility constant Hcp at 293 K": 0.1},
      {"smiles": "COc1ccc(O)c([N+](=O)[O-])c1", "note": "[4-methoxy-2-nitrophenol]", "Henry solubility constant Hcp at 293 K": 5.3},
      {"smiles": "Cc1ccc(O)c([N+](=O)[O-])c1", "note": "[4-methyl-2-nitrophenol]", "Henry solubility constant Hcp at 293 K": 0.67},
      {"smiles": "O=[N+]([O-])c1ccc(O)cc1", "note": "[4-nitrophenol]", "Henry solubility constant Hcp at 293 K": 770},
      {"smiles": "O=[N+]([O-])c1ccc(F)cc1O", "note": "[5-fluoro-2-nitrophenol]", "Henry solubility constant Hcp at 293 K": 0.5},
      {"smiles": "Cc1ccc([N+](=O)[O-])c(O)c1", "note": "[5-methyl-2-nitrophenol]", "Henry solubility constant Hcp at 293 K": 0.77},
      {"smiles": "Cc1cccc([N+](=O)[O-])c1O", "note": "[6-methyl-2-nitrophenol]", "Henry solubility constant Hcp at 293 K": 0.29}
    ]}
  ]
}
